What was measured:
[1] = test system: purple nutsedge; assay: Test B pre/postemergence purple nutsedge; format: in vivo, Cyperus rotundus; conditions: Postemergence
In short: (§1)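 Test chemicals in a non-phytotoxic solvent mixture with surfactant were sprayed preemergence onto planted seeds and postemergence onto plants 2 to 18 cm tall (1- to 4-leaf stage). After twelve to sixteen days in a greenhouse, injury was visually rated against untreated controls from 0 (no effect) to 10 (complete control).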

[2] = test system: smallflower flatsedge; assay: Test B flood test smallflower flatsedge; format: in vivo, Cyperus difformis
In short: (§2)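 Flood test on plants grown to the 2-leaf stage; treated plants kept in greenhouse twelve to sixteen days, then visually rated against controls on a 0 (no effect) to 10 (complete control) scale.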

[3] = test system: velvetleaf; assay: Test B pre/postemergence velvetleaf; format: in vivo, Abutilon theophrasti
In short: as §1

[4] = test system: soybean; assay: Test B pre/postemergence soybean; format: in vivo, Glycine max
In short: as §1

[5] = test system: pigweed; assay: Test B pre/postemergence pigweed; format: in vivo, Amaranthus retroflexus
In short: as §1

[6] = test system: corn; assay: Test B pre/postemergence corn; format: in vivo, Zea mays
In short: as §1

[7] = test system: rape; assay: Test B pre/postemergence rape; format: in vivo, Brassica napus
In short: as §1

[8] = test system: blackgrass; assay: Test B pre/postemergence blackgrass; format: in vivo, Alopecurus myosuroides
In short: as §1

[9] = test system: surinam grass; assay: Test B pre/postemergence surinam grass; format: in vivo, Brachiaria decumbens
In short: as §1

[10] = test system: rice; assay: Test B flood test rice; format: in vivo, Oryza sativa
In short: as §2

[11] = test system: morningglory; assay: Test B pre/postemergence morningglory; format: in vivo, Ipomoea hederacea
In short: as §1

[12] = test system: giant foxtail; assay: Test B pre/postemergence giant foxtail; format: in vivo, Setaria faberii
In short: as §1

[13] = test system: duck salad; assay: Test B flood test duck salad; format: in vivo, Heteranthera limosa
In short: as §2

[14] = test system: bedstraw; assay: Test B pre/postemergence bedstraw; format: in vivo, Galium aparine
In short: as §1

[15] = test system: bamyardgrass; assay: Test B flood test barnyardgrass; format: in vivo, Echinochloa crus-galli
In short: as §2

[16] = test system: sugar beet; assay: Test B pre/postemergence sugar beet; format: in vivo, Beta vulgaris
In short: as §1

[17] = Rate 62 g/ha, headed Pre-emergence (flood test species), scale 0 to 10 (0 no effect, 10 complete control)
[18] = Rate 125 g/ha, Pre-emergence, flood test species, scale 0 to 10 where 0 is no effect and 10 is complete control
[19] = Rate 250 g/ha, Pre-emergence, flood-test species, scale 0 to 10, 0 is no effect, 10 is complete control
[20] = Preemergence, Rate 62 g/ha, scale of 0 to 10 where 0 is no effect and 10 is complete control
[21] = Preemergence, Rate 250 g/ha, scale 0 to 10, 0 is no effect, 10 is complete control
[22] = Preemergence, Rate 500 g/ha, scale of 0 to 10 where 0 is no effect and 10 is complete control
[23] = Rate 62 g/ha, Postemergence, scale of 0 to 10 where 0 is no effect and 10 is complete control
[24] = Rate 125 g/ha, Postemergence, scale 0 to 10
[25] = Preemergence, Rate 125 g/ha, 0 is no effect, 10 is complete control
[26] = Rate 500 g/ha, Postemergence, scale 0 to 10
[27] = Rate 500 g/ha, headed Pre-emergence (flood test species), scale 0 to 10 (0 no effect, 10 complete control)

Structure (SMILES): Cc1ccccc1-n1c(=O)on(C(=O)N(c2ccc(Cl)cc2F)C(C)C)c1=O [Compound 195]
- Nutsedge plant response rating ([1]; Rate 62 g/ha, scale of 0 to 10 where 0 is no effect and 10 is complete control): 0
- Nutsedge plant response rating ([1]; Rate 125 g/ha, scale 0 to 10): 0
- Plant response rating (0 to 10; 0 is no effect, 10 is complete control), Nutsedge ([1]; Rate 250 g/ha): 0
- Nutsedge plant response rating ([1]; Rate 500 g/ha, scale 0 to 10): 0
- S. Flatsedge plant response rating [2, 17]: 0
- S. Flatsedge plant response rating [2, 18]: 0
- S. Flatsedge plant response rating [2, 19]: 0
- S. Flatsedge plant response rating ([2]; Rate 500 g/ha, Pre-emergence, flood test species, scale 0 to 10 (0 no effect, 10 complete control)): 0
- Velvetleaf plant response rating [3, 20]: 0
- Velvetleaf plant response rating [3, 21]: 0
- Plant response rating, Velvetleaf [3, 22]: 0
- Velvetleaf plant response rating [3, 23]: 0
- Velvetleaf plant response rating [3, 24]: 0
- Plant response rating (0 to 10; 0 is no effect, 10 is complete control), Velvetleaf ([3]; Rate 250 g/ha, Postemergence): 2
- Soybean plant response rating [4, 20]: 0
- Soybean plant response rating (0 to 10 scale) [4, 25]: 0
- Soybean plant response rating [4, 21]: 0
- Plant response rating, Soybean [4, 22]: 0
- Soybean plant response rating [4, 23]: 2
- Soybean plant response rating [4, 24]: 3
- Plant response rating (0 to 10; 0 is no effect, 10 is complete control), Soybean ([4]; Rate 250 g/ha, Postemergence): 4
- Soybean plant response rating [4, 26]: 5
- Redroot pigweed plant response rating [5, 20]: 0
- Redroot pigweed plant response rating (0 to 10 scale) [5, 25]: 0
- Redroot pigweed plant response rating [5, 21]: 0
- Plant response rating, Redroot pigweed [5, 22]: 0
- Redroot pigweed plant response rating [5, 23]: 0
- Redroot pigweed plant response rating [5, 24]: 0
- Plant response rating (0 to 10; 0 is no effect, 10 is complete control), Redroot pigweed ([5]; Rate 250 g/ha, Postemergence): 2
- Redroot pigweed plant response rating [5, 26]: 4
- Corn plant response rating [6, 20]: 0
- Corn plant response rating (0 to 10 scale) [6, 25]: 0
- Corn plant response rating [6, 21]: 0
- Plant response rating, Corn [6, 22]: 0
- Corn plant response rating [6, 23]: 0
- Corn plant response rating [6, 24]: 0
- Plant response rating (0 to 10; 0 is no effect, 10 is complete control), Corn ([6]; Rate 250 g/ha, Postemergence): 0
- Corn plant response rating [6, 26]: 0
- Rape plant response rating [7, 20]: 0
- Rape plant response rating (0 to 10 scale) [7, 25]: 0
- Rape plant response rating [7, 21]: 0
- Plant response rating, Rape [7, 22]: 0
- Rape plant response rating [7, 23]: 0
- Rape plant response rating [7, 24]: 0
- Plant response rating (0 to 10; 0 is no effect, 10 is complete control), Rape ([7]; Rate 250 g/ha, Postemergence): 0
- Rape plant response rating [7, 26]: 0
- Blackgrass plant response rating [8, 20]: 0
- Blackgrass plant response rating (0 to 10 scale) [8, 25]: 1
- Blackgrass plant response rating [8, 21]: 3
- Plant response rating, Blackgrass [8, 22]: 6
- Blackgrass plant response rating [8, 23]: 0
- Blackgrass plant response rating [8, 24]: 3
- Plant response rating (0 to 10; 0 is no effect, 10 is complete control), Blackgrass ([8]; Rate 250 g/ha, Postemergence): 5
- Blackgrass plant response rating [8, 26]: 6
- B. signalgrass plant response rating [9, 20]: 0
- B. signalgrass plant response rating (0 to 10 scale) [9, 25]: 0
- B. signalgrass plant response rating [9, 21]: 1
- Plant response rating, B. signalgrass [9, 22]: 6
- B. signalgrass plant response rating [9, 23]: 0
- B. signalgrass plant response rating ([9]; Rate 125 g/ha, Postemergence, scale 0 (no effect) to 10 (complete control)): 0
- Plant response rating, B. signalgrass ([9]; Rate 250 g/ha, Postemergence, scale 0 to 10, 0 is no effect, 10 is complete control): 0
- B. signalgrass plant response rating ([9]; Rate 500 g/ha, Postemergence, scale 0 to 10, 0 no effect, 10 complete control): 1
- Rice plant response rating [10, 17]: 0
- Rice plant response rating [10, 18]: 0
- Rice plant response rating [10, 19]: 0
- Plant response rating, Rice [10, 27]: 0
- Morningglory plant response rating [11, 20]: 0
- Morningglory plant response rating (0 to 10 scale) [11, 25]: 0
- Morningglory plant response rating [11, 21]: 0
- Plant response rating, Morningglory [11, 22]: 0
- Morningglory plant response rating [11, 23]: 0
- Morningglory plant response rating [11, 24]: 0
- Plant response rating (0 to 10; 0 is no effect, 10 is complete control), Morningglory ([11]; Rate 250 g/ha, Postemergence): 1
- Morningglory plant response rating [11, 26]: 3
- Giant foxtail plant response rating [12, 20]: 3
- Giant foxtail plant response rating (0 to 10 scale) [12, 25]: 3
- Giant foxtail plant response rating [12, 21]: 8
- Plant response rating, Giant foxtail [12, 22]: 10
- Giant foxtail plant response rating [12, 23]: 0
- Giant foxtail plant response rating [12, 24]: 0
- Plant response rating (0 to 10; 0 is no effect, 10 is complete control), Giant foxtail ([12]; Rate 250 g/ha, Postemergence): 1
- Giant foxtail plant response rating [12, 26]: 3
- Ducksalad plant response rating [13, 17]: 0
- Ducksalad plant response rating [13, 18]: 0
- Ducksalad plant response rating [13, 19]: 0
- Plant response rating, Ducksalad [13, 27]: 0
- Bedstraw plant response rating [14, 20]: 0
- Bedstraw plant response rating (0 to 10 scale) [14, 25]: 0
- Bedstraw plant response rating [14, 21]: 0
- Plant response rating, Bedstraw [14, 22]: 2
- Bedstraw plant response rating [14, 23]: 2
- Bedstraw plant response rating [14, 24]: 2
- Bedstraw plant response rating [14, 26]: 7
- Barnyardgrass plant response rating [15, 17]: 0
- Barnyardgrass plant response rating [15, 18]: 0
- Barnyardgrass plant response rating [15, 19]: 0
- Plant response rating, Barnyardgrass [15, 27]: 0
- Sugarbeets plant response rating [16, 20]: 0
- Sugarbeets plant response rating (0 to 10 scale) [16, 25]: 0
- Sugarbeets plant response rating [16, 21]: 0
- Plant response rating, Sugarbeets [16, 22]: 2
- Sugarbeets plant response rating [16, 23]: 0
- Sugarbeets plant response rating [16, 24]: 0
- Plant response rating (0 to 10; 0 is no effect, 10 is complete control), Sugarbeets ([16]; Rate 250 g/ha, Postemergence): 0
- Sugarbeets plant response rating [16, 26]: 2
